Data as given in US11472831B2, “Isotopically labeled bile acid derivatives” (Intercept Pharmaceuticals, Inc., priority 2017, dated 2022).
Blank lines part the entries; values can stand above or below the molecule they belong to.

Key:
[1] = Clinical study Part 1, Regimen A: oral plasma PK and absolute bioavailability of 25 mg OCA tablet; type: in vivo, human
Experimental: The objectives of this study were to determine the absolute bioavailability of OCA, and evaluate the absorption, distribution, metabolism, and excretion of OCA in healthy male subjects. In addition, the oral pharmacokinetics (PK) of OCA and carbon-14 ([^14C]-OCA, and intravenous (IV) PK of [^14C]-OCA were evaluated.
The PK objectives of Part 1 were to determine the absolute bioavailability of OCA, to define the intravenous (IV) PK of a microtracer dose of [14C] OCA, and to evaluate the oral PK of OCA. In Part 1, subjects were administered the oral dose (Regimen A: 25 mg OCA tablet), followed by the IV microtracer dose (Regimen B: 100 μg [14C]-OCA) 1 hour 45 minutes after the oral dose administration. The 15 minute IV infusion ended at the estimated tmax for the oral dose (2 hours).
To evaluate the oral PK, plasma concentrations of OCA and its conjugates were measured following an oral dose (Regimen A: 25 mg OCA). OCA was rapidly absorbed; the median tmax was 0.5 hrs. Following Cmax, OCA concentration declined rapidly within 4 hours, consistent with the IV profile of OCA. Subsequent OCA concentrations remained, on average, less than 10% of Cmax up to 72 hours post-dose. A prolonged profile of OCA was observed over the course of 72 hours (FIG. 4). This low level persistence of parent OCA is most likely due to deconjugation of glyco-OCA and tauro-OCA by commensal bacteria in the ileum and colon, followed by reabsorption of OCA.
Mean (SD) plasma concentrations over time of total OCA (the sum of OCA, glyco-OCA, and tauro-OCA) are presented in FIG. 15 (Note: Total OCA calculated as sum of OCA, glyco-OCA, and tauro-OCA concentrations at each time point, glyco-OCA, and tauro-OCA concentrations at each time point expressed as mass equivalents of OCA). Consistent with the [^14C]-OCA results, the maximum exposure of total OCA occurred after a meal, consistent with gallbladder release and enterohepatic recirculation, leading to exposure levels being observed up to 72 hours post-dose. Based on overall exposure of total OCA (AUC0-t), glyco-OCA and tauro-OCA are the primary components of exposure, with minimal contribution (less than 10%) from the parent (OCA).
Absolute bioavailability was determined by the ratio of dose normalized AUC for oral dose/dose normalized AUC for IV dose. […] This relatively low value for bioavailability is consistent with the efficient uptake typical of bile acids into the liver, the primary site of action of OCA. PK results were as expected for a bile acid. OCA is rapidly absorbed in the intestine and taken up in the liver, where it is conjugated with glycine and taurine. Glyco-OCA and tauro-OCA were the primary components of exposure, with minimal contribution from the parent (OCA). Enterohepatic recirculation produced an extended profile, with maximum exposure occurring after meals.

[2] = Clinical study Part 2, Regimen C: plasma PK and metabolite profile after 25 mg oral dose of [14C]-OCA; type: in vivo, human; conditions: for AUC0-t / Cmax / tmax: plasma; for AUC0-t / Cmax: mean (SD); for circulating OCA metabolites other than glyco-OCA and tauro-OCA: metabolite profiling of radioactivity, mass spectrometry, authentic standards
Excerpt: Part 2 also evaluated the extent of distribution of total radioactivity into blood cells, and identified metabolites accounting for more than 10% of circulating total radioactivity. The concentrations of total radioactivity and total OCA in plasma over time are shown in FIG. 16 (Note: Total OCA calculated as sum of OCA, glyco-OCA, and tauro-OCA concentrations at each time point, glyco-OCA, and tauro-OCA concentrations at each time point expressed as mass equivalents of OCA) and FIG. 17 (Note: Total OCA calculated as sum of OCA, glyco-OCA, and tauro-OCA concentrations at each time point, glyco-OCA, and tauro-OCA concentrations at each time point expressed as mass equivalents of OCA. Units for total radioactivity are mass equivalent to OCA (i.e. ng-eq OCA/mL)). […] Two additional OCA metabolites were identified: OCA-3 glucuronide and OCA-24 glucuronide, based on the metabolite profiling of radioactivity, mass spectrometry, and authentic standards for the glucuronide metabolites. […] Following Cmax, OCA concentration declined rapidly within the first 4 hours. The maximum exposure of total OCA, including the conjugates, occurred after meals, consistent with gallbladder release and enterohepatic recirculation, leading to exposure levels being observed over the approximately 4-week sampling period.

[3] = statement, no data shown; cited from earlier work
[4] = biological target: T1, farnesoid X receptor (FXR) (Homo sapiens, UniProt Q96RI1); conditions: background statement; cited from earlier work
T1 sequence (Q96RI1 1-486): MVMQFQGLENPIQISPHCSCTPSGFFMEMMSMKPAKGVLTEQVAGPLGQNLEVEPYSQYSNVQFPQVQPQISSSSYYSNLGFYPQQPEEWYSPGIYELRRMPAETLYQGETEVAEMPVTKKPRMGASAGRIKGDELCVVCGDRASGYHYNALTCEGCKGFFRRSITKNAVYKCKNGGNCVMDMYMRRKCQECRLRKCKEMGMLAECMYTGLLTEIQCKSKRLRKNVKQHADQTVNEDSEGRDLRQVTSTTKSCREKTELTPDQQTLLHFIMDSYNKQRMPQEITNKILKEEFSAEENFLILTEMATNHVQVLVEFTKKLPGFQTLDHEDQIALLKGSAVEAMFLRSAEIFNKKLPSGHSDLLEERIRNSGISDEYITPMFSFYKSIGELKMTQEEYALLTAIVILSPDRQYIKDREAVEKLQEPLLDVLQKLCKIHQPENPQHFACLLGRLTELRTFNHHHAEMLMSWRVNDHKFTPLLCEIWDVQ

[5] = Clinical study Part 1, Regimen B: IV plasma PK of 100 μg microtracer dose of [14C]-OCA; type: in vivo, human
Experimental: The objectives of this study were to determine the absolute bioavailability of OCA, and evaluate the absorption, distribution, metabolism, and excretion of OCA in healthy male subjects. […] Mean plasma concentrations of total radioactivity are shown in FIG. 12, and of [^14C]-OCA in FIG. 13. The highest concentration of radioactivity in plasma was measured after completion of the IV dose, and the concentrations of OCA declined rapidly within 4 hours. After the initial decline, a low-level, prolonged profile of OCA and total radioactivity was observed, as expected due to enterohepatic recirculation.

[6] = Clinical study Part 2: mass balance recovery of radioactivity in urine and feces after 25 mg oral [14C]-OCA; type: in vivo, human
Experimental: Part 2 also evaluated the extent of distribution of total radioactivity into blood cells, and identified metabolites accounting for more than 10% of circulating total radioactivity. The mean cumulative recovery (cumulative % Ae (Amount excreted)) of radioactivity in the urine and feces of subjects receiving oral [^14C]-OCA is shown in FIG. 18. […] The majority of drug-related material in the feces was recovered within 552 hours of dosing with investigational product. In Part 2 (Mass Balance), the mass balance data confirmed that the primary elimination route of OCA is through the feces. A mean of 87% of administered radioactivity was recovered from the feces over the entire collection period, and a minor percentage (<3%) was recovered from the urine.

[7] = rat; single oral administration of [14C] OCA
Excerpt: Preclinical mass balance and radiolabeled single dose PK studies in the rat have examined biliary, urinary, and fecal excretion of OCA and its metabolites.

[8] = plasma, single oral dose 25 mg OCA tablet, mean (SD), N = 5
[9] = plasma, single oral dose 25 mg OCA tablet, median and range, N = 5
[10] = 25 mg oral dose of [14C]-OCA, N = 8
[11] = 25 mg oral dose of [14C]-OCA, median and range, N = 8
[12] = male, human, plasma [14C]-OCA, 15 minute IV infusion of 100 μg [14C]-OCA, mean (SD), N = 5
[13] = by 504 hours postdose, single oral 25 mg [14C]-OCA
[14] = over the entire collection period

- AUC0-t [1, 8]: 1540 (480.7) hours*ng/mL
- Cmax [1, 8]: 57.4 (24.43) ng/mL
- tmax [1, 9]: 8.000 (2.00, 36.00) h
- AUC0-t [2, 10]: 4690 (2232) ^ hours*ng/mL
- Cmax [2, 10]: 73.8 (39.96) ng/mL
- tmax [2, 11]: 10.0 (3.00, 36.0) h
SMILES: CC[C@H]1[C@@H](O)[C@@H]2[C@H](CC[C@]3(C)[C@@H]([C@H](C)CCC(=O)NCC(=O)O)CC[C@@H]23)[C@@]2(C)CC[C@@H](O)C[C@@H]12 [Glyco-OCA]
- pharmacological action compared with parent drug (OCA) [3]: equipotent

- bioavailability ([1]; male, human, plasma, oral, 25 mg, ratio of dose normalized AUC oral 25 mg OCA / IV 100 μg [14C]-OCA, mean (SD), N = 5, read-out: F (absolute bioavailability)): ~17%
- tmax ([1]; male, human, plasma, oral 25 mg OCA, read-out: median tmax): 30 min
- AUC0-t ([1]; male, human, plasma, single oral dose 25 mg OCA tablet, mean (SD), N = 5, read-out: AUC0-t): 0.144 µg·h/mL
- Cmax ([1]; male, human, plasma, single oral dose 25 mg OCA tablet, mean (SD), N = 5, read-out: Cmax): 0.0809 µg/mL
- subsequent OCA plasma concentrations relative to Cmax ([1]; on average, after the decline within 4 hours, up to 72 hours post-dose, oral 25 mg OCA): less than 10%
- contribution of parent to overall exposure of total OCA (AUC0-t) ([1]; oral 25 mg OCA): less than 10%
- tmax [1, 9]: 0.500 (0.50, 2.03) h
- tmax ([2]; male, human, 25 mg oral [14C]-OCA, read-out: median tmax): 75 min
- AUC0-t ([2]; male, human, 25 mg oral dose of [14C]-OCA, N = 8, read-out: AUC0-t): 0.475 µg·h/mL
- Cmax ([2]; male, human, 25 mg oral dose of [14C]-OCA, N = 8, read-out: Cmax): 0.0637 µg/mL
- tmax [2, 11]: 1.25 (0.750, 2.50) h
SMILES: CC[C@H]1[C@@H](O)[C@@H]2[C@H](CC[C@]3(C)[C@@H]([C@H](C)CCC(=O)O)CC[C@@H]23)[C@@]2(C)CC[C@@H](O)C[C@@H]12 [OCA, 3α,7α-dihydroxy-6α-ethyl-5β-cholan-24-oic acid]
- FXR activity [4]: highly potent FXR modulator

- circulating OCA metabolites other than glyco-OCA and tauro-OCA [2]: identified
SMILES: CC[C@H]1[C@@H](O)C2C3CC[C@H]([C@H](C)CCC(=O)O)[C@@]3(C)CCC2[C@@]2(C)CC[C@@H](O[C@@H]3O[C@H](C(=O)O)[C@@H](O)[C@H](O)[C@H]3O)C[C@@H]12 (some centres unmarked) [OCA-3 glucuronide, OCA-3-O-Glucuronide]

- circulating OCA metabolites other than glyco-OCA and tauro-OCA [2]: identified
SMILES: CC[C@H]1[C@@H](O)[C@H]2C3CC[C@H]([C@H](C)CCC(=O)O[C@@H]4O[C@H](C(=O)O)[C@@H](O)[C@H](O)[C@H]4O)[C@@]3(C)CC[C@@H]2[C@@]2(C)CC[C@@H](O)C[C@@H]12 (some centres unmarked) [OCA-24 glucuronide]

- AUC0-t [1, 8]: 624 (159.6) hours*ng/mL
- Cmax [1, 8]: 23.1 (7.412) ^ ng/mL
- tmax [1, 9]: 36.000 (2.00, 60.00) h
- AUC0-t [2, 10]: 2550 (2155) ^ hours*ng/mL
- Cmax [2, 10]: 24.4 (14.21) ng/mL
- tmax [2, 11]: 9.03 (2.50, 36.0) h
SMILES: CC[C@H]1[C@@H](O)[C@@H]2[C@H](CC[C@]3(C)[C@@H]([C@H](C)CCC(=O)NCCS(=O)(=O)O)CC[C@@H]23)[C@@]2(C)CC[C@@H](O)C[C@@H]12 [Tauro-OCA]
- pharmacological action compared with parent drug (OCA) [3]: equipotent

- Vs (volume of distribution) ([5]; 15 minute IV infusion of 100 μg [14C]-OCA, mean (SD), N = 5): 618 (341.9) L
- clearance ([5]; male, human, plasma, 15 minute IV infusion of 100 μg [14C]-OCA, mean (SD), N = 5, read-out: CL (total plasma clearance) (converted)): 417 mL/min
- Vd ([5]; male, human, plasma, 15 minute IV infusion of 100 μg [14C]-OCA, mean (SD), N = 5, read-out: Vss (volume of distribution at steady state)): 210 L
- AUC0-t [5, 12]: 0.00386 µg·h/mL
- Cmax [5, 12]: 0.00971 µg/mL
- AUC0-t of [14C]-OCA as share of the total radioactive exposure ([5]; over 72 hours, IV 100 μg [14C]-OCA): approximately 20%
- total radioactivity administered recovered from feces, mean ([6]; at 1152 hours): 87.0%
- radioactivity recovered from feces, average [6, 13]: 72.3%
- total radioactivity administered recovered from urine and feces, mean [6, 13]: 75.1%
- administered radioactivity recovered from the feces, mean [6, 14]: 87%
- administered radioactivity recovered from the urine [6, 14]: < 3%
- total radioactivity recovered from the urine, average ([6]; single oral 25 mg [14C]-OCA): 2.83%
- route of excretion of radioactivity [7]: excreted mainly in the feces
SMILES: CC[C@H]1[C@@H](O)C2C3CC[C@H]([C@H](C)CCC(=O)O)[C@@]3(C)CCC2[C@@]2(C)CC[C@@H](O)C[C@@H]12 (some centres unmarked) [[^14C]-OCA, [^14C]OCA]
